Source: US20250017889A1, “INHIBITORS OF P1B-TYPE ATPASES” (THE CURATORS OF THE UNIVERSITY OF MISSOURI, priority 2021, published 2025)

Key:
[1] = biological target: T1, ATP7B (Homo sapiens, UniProt P35670); assay: Microscale thermophoresis (MST) binding to GFP-ATP7B in HEK293 cell lysates; conditions: MST
T1 construct: expressed in transfected cells; host or cells: HEK293 (detergent-free lysate)
T1 sequence (P35670 1-1465): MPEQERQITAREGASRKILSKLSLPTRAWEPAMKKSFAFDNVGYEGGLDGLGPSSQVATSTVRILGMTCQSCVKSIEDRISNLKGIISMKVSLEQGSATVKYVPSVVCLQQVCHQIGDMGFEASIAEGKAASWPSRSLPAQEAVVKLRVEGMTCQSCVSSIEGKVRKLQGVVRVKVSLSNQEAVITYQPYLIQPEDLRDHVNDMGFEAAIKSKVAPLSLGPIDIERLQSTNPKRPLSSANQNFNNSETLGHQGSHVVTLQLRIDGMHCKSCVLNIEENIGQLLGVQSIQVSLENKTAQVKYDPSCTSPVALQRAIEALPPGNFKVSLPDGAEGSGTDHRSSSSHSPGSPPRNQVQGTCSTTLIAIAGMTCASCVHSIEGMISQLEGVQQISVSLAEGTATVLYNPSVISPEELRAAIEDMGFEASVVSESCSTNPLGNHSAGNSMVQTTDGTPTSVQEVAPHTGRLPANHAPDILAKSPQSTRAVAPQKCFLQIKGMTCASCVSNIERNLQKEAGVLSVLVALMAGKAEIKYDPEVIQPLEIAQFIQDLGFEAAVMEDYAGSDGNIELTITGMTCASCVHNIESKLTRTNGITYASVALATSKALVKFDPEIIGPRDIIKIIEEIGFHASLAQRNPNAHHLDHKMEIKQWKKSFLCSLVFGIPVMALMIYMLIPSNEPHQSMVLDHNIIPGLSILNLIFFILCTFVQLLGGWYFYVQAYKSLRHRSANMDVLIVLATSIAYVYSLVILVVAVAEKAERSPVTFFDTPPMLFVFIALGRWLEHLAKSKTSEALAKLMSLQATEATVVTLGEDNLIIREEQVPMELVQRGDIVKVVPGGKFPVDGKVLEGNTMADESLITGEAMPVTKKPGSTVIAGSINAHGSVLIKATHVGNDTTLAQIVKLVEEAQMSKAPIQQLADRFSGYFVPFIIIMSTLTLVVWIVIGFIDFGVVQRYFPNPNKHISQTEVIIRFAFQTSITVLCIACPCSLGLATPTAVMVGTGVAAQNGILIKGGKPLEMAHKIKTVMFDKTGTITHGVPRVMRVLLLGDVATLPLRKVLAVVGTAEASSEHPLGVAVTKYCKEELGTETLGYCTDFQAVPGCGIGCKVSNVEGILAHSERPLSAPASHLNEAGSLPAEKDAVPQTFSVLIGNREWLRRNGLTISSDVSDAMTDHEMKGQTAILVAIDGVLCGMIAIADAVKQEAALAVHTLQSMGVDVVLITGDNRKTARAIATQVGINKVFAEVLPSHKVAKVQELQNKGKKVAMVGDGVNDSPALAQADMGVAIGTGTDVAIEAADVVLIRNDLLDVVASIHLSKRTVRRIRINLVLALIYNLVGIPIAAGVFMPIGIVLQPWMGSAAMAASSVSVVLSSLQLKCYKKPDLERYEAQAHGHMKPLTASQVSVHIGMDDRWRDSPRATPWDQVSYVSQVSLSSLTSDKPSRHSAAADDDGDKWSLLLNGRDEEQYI
From the text: (§1) Coordinating residues D935 and E798 are predicted to bind copper during transport.

[2] = tested on: LOX activity; assay: LOX activity secreted into conditioned media of cancer cells; assay type: cell-based; conditions: 4T1 breast cancer cells, compared with MKV3
[3] = Cytotoxicity in B16 cells by MTT and crystal violet assays; assay type: cell-based; conditions: mouse, B16 melanoma cells; B16 cells, MTT and crystal violet assays; read-out: half-maximal cytotoxic concentration (CC50)
From the text: This is consistent with lower affinity of MKV1 for ATP7A (FIG. 6E).

[4] = tested on: tyrosinase activity in B16 melanoma cells; assay: Tyrosinase activity in wild type B16 melanoma cells (L-DOPA to DOPAchrome), proxy for ATP7A inhibition; assay type: cell-based; conditions: for IC50: Mus musculus, B16 cells
From the text: Tyrosinase is a cuproenzyme involved in melanogenesis that receives copper via ATP7A in the secretory pathway. […] Thus, reductions in tyrosinase activity in wild type B16 cells can be used as a proxy for inhibition of ATP7A. […]

[5] = tested on: GFP alone; assay: Microscale thermophoresis (MST), GFP alone as negative control; assay type: binding
From the text: as §1

[6] = biological target: T2, ATP7A (Homo sapiens, UniProt Q04656); assay: Microscale thermophoresis (MST) binding to GFP-ATP7A in HEK293 cell lysates; conditions: for Kd: MST analysis, read-out: ATP7A Binding Affinity KD
T2 construct: expressed in transfected cells; host or cells: HEK293 (detergent-free lysate)
T2 sequence (Q04656 1-1500): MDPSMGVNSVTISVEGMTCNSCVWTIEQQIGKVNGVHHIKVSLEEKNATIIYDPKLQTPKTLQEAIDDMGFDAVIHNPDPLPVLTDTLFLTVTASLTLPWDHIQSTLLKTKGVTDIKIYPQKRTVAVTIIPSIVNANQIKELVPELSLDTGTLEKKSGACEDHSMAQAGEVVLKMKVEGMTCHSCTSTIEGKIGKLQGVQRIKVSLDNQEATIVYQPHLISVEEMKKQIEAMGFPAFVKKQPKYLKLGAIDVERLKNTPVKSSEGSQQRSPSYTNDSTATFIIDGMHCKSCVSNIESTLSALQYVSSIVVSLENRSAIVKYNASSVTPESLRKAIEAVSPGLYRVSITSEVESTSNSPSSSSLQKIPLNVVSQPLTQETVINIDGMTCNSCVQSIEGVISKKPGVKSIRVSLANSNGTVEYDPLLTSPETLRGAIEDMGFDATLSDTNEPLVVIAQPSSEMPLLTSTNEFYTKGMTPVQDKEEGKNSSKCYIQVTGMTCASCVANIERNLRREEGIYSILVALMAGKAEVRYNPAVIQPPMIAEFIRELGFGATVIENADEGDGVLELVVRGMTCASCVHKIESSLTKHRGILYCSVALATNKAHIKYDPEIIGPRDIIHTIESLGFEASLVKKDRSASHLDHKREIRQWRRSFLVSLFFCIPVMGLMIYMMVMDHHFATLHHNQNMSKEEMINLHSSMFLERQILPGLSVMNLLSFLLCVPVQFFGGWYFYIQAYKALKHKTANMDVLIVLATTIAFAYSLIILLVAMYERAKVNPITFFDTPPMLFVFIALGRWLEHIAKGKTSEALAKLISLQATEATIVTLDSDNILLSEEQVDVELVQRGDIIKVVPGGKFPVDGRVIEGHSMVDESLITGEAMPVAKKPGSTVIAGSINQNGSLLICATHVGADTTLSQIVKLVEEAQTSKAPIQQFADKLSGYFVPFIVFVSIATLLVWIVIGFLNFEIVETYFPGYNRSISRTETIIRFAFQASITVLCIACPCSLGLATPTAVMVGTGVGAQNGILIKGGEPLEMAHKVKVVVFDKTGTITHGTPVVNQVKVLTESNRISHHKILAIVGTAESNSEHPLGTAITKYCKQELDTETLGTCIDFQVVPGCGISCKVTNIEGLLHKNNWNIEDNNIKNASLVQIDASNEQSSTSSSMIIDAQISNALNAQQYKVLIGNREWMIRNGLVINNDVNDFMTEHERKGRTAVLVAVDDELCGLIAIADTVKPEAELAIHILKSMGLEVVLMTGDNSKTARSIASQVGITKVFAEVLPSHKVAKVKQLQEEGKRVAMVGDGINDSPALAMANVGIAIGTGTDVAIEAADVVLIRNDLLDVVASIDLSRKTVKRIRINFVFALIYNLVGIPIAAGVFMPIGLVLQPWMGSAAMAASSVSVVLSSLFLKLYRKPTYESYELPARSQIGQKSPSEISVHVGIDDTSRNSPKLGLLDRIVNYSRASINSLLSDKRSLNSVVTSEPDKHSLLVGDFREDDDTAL

[7] = tested on: ΔcopA/ΔcopB strain of S. aureus; assay: Growth of copper-sensitive ΔcopA/ΔcopB mutant strain of S. aureus; assay type: cell-based, Staphylococcus aureus; conditions: copper alone 50 μM
Experimental: Methicillin-resistant Staphylococcus aureus (MRSA) is a human pathogen that expresses two Cu-transporting P1B-type ATPases, CopA and CopB, which are known to enhance the virulence of this bacterium. 19A illustrates CopA and CopB copper exporters at the plasma membrane of S. aureus. […] The growth of the ΔcopA/ΔcopB strain was inhibited by approximately 50% when copper alone (50 μM) was added to the culture medium.
Wild type MRSA expresses two copper-exporting P1B-type ATPases, CopA and CopB that are required for copper tolerance (FIG. 19A). […] The same experiment was performed using MRSA in which both CopA and CopB genes were deleted (ΔcopA/ΔcopB). Consistent with the known role of CopA and CopB in copper tolerance, the growth of the ΔcopA/ΔcopB strain was inhibited by approximately 50% when copper alone (50 μM) was added to the culture medium (FIG. 19C).

Compound	IC50 [4]	Kd [6]	other results
O=C(CC(=S)Nc1ccccc1)Nc1ccccc1 [MKV1]	29.98 ± 0.029 µM	1.83 ± 0.151 µM	fold difference in affinity for ATP7B between MKV3 (higher) and MKV1 (lower) [1]: approximately 10 fold; LOX activity [2]: inhibited LOX activity but only at higher concentrations than for MKV3; CC50 [3]: ~270 µM; in situ tyrosinase activity ([4]; 50 μM, 24 h, wild type B16 melanoma cells): loss of tyrosinase activity; binding to GFP alone [5]: not to GFP alone; fold difference in affinity for ATP7A between MKV3 (higher) and MKV1 (lower) ([6]; MST): approximately 10 fold
N#CC(C(=O)Nc1ccccc1)C(=S)Nc1ccccc1 (stereo not drawn) [MKV1B]	21.87 ± 0.129 µM	0.354 ± 0.021 µM	–
copper	–	–	inhibition of growth of the ΔcopA/ΔcopB strain [7]: approximately 50%
O=C(CC(=S)Nc1ccccc1Cl)Nc1ccccc1 [MKV1A]	21.559 ± 0.005 µM	0.363 ± 0.024 µM	–

More lines, in order of falling IC50 [4], values ahead:

IC50 [4]	Kd [6]	Compound	other results
16.18 ± 0.023 µM	0.43 ± 0.016 µM	O=C(CC(=S)Nc1ccccc1)Nc1cccc(C(F)(F)F)c1 [MKV1C]	–
12.222 ± 0.005 µM	0.708 ± 0.042 µM	O=C(CC(=S)Nc1ccccc1Cl)Nc1cccc(C(F)(F)F)c1 [MKV1D]	–
11.7 ± 0.001 µM	1.06 ± 0.054 µM	N#CC(C(=O)Nc1ccccc1)C(=S)Nc1ccccc1Cl (stereo not drawn) [MKV1E]	–
8.719 ± 0.014 µM	1 ± 0.059 µM	N#CC(C(=O)Nc1cccc(C(F)(F)F)c1)C(=S)Nc1ccccc1 (stereo not drawn) [MKV1F]	–
